In patent US8067424B2, “Selective inhibitors for cyclin-dependent kinases” (Emory University, priority 2007, dated 2011):
Read-outs that look alike come from different tables or passages of the source.

Key:
Assay type in all cases: biochemical
CAMK1 = CAMK1 (Homo sapiens, UniProt Q14012); experiment: Kinase screen: CAMK-1 assay
Protocol: (§1) Generally, the same procedure was used for all assays. Since the total assay volume was 25.5 microliters, 0.5 microliters of inhibitors at 51× assay concentration were added to the plates before any other addition.
(§2) The basic procedure was to add 0.5 microliters inhibitor/control in DMSO to plate. Fifteen microliters of enzyme/substrate/buffer mix were added and incubated for 5 min. Ten microliters MgATP at the relevant concentration were added and incubated for 30 min. The assay was stopped by adding 5 microliters of 3% orthophosphoric acid. The assay was transferred to a p81 filter plate and read in a scintillation counter of 30 sec/well. Note that this assay procedure was not followed for MKK1, which instead involved a two-step assay, and PKC alpha, which required the addition of lipid vesicles.
CAMK-1 assay: 5-20 mU of CAMK-1 (diluted in 50 mM Tris (pH 7.5), 0.1 mM EGTA, 1 mg/ml BSA, 0.1%, b-Mercaptoethanol) was assayed against substrate peptide ([…]) (SEQ ID NO: 22) in a final volume of 25.5 μl containing 50 mM Tris (pH 7.5), 0.1 mM EGTA, 0.5 mM CaCl2, 0.3 μM calmodulin, 0.1%, b-Mercaptoethanol, 300 μM substrate peptide, 10 mM magnesium acetate and 0.05 mM [33P-g-ATP] (500-1000 cpm/pmole) and incubated for 30 mins at room temperature. Assays were stopped by addition of 5 μl of 0.5M (3%) orthophosphoric acid. Assays were harvested onto P81 Unifilter plates using a wash buffer of 50 mM orthophosphoric acid.

BRSK2 = target: T1, BRSK2 (Homo sapiens, UniProt Q8IWQ3); experiment: Kinase screen: BRSK2 assay
T1 sequence (Q8IWQ3 1-736): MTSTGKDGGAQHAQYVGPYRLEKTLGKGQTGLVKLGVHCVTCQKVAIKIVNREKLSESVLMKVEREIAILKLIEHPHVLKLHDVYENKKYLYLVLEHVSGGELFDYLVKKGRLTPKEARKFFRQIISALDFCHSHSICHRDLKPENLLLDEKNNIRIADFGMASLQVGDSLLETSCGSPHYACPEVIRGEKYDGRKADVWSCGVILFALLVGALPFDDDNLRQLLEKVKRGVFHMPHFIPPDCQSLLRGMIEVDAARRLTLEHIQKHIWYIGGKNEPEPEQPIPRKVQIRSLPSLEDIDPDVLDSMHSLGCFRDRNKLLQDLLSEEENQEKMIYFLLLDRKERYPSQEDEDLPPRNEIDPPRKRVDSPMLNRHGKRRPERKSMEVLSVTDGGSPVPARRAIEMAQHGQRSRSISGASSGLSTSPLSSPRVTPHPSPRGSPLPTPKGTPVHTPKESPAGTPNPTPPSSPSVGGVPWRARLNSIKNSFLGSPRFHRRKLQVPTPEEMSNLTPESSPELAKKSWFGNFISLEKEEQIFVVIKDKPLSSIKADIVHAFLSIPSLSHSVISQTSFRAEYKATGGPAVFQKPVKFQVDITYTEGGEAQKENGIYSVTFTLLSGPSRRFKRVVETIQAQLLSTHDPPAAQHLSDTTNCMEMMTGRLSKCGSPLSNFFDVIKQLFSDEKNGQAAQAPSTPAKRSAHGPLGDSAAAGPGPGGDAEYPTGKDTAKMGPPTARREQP
Protocol: as §1, §2
(§3) BRSK2 assay: BRSK2 (5-20 mU diluted in 50 mM Tris pH 7.5, 0.1 mM EGTA, 0.1% b-mercaptoethanol, 1 mg/ml BSA) was assayed against a substrate peptide ([…]) (SEQ ID NO: 33) in a final volume of 25.5 μl containing 50 mM Tris pH 7.5, 0.05% b-mercaptoethanol, 300 μM substrate peptide, 10 mM magnesium acetate and 0.05 mM [33P-g-ATP] (50-1000 cpm/pmole) and incubated for 30 min at room temperature. Assays were stopped by addition of 5 μl of 0.5 M (3%) orthophosphoric acid and then harvested onto P81 Unifilter plates with a wash buffer of 50 mM orthophosphoric acid.

CK2 = experiment: Kinase screen: CK2 assay; conditions: for mean activity remaining (as a percentage of the original activity), CK 2: 10 micromolar compound
Protocol: as §2, with “Generally, the same procedure was used for all assays. Since the total assay volume was 25.5 microliters, 0.5 microliters of inhibitors at 51× assay concentration were added to the plates before any other addition. […] The basic” for “The basic”, “30 min. […] The assay” for “30 min. The assay was stopped by adding 5 microliters of 3% orthophosphoric acid. The assay”, “lipid vesicles. CK2 assay: […]” for “lipid vesicles.”

IR-HIS = target: T2, IR-HIS (Homo sapiens, UniProt P06213); experiment: Kinase screen: IR-HIS assay; conditions: 10 micromolar compound; for remaining activity at 10 µM: read-out: mean activity remaining (as a percentage of the original activity), IR-HIS
T2 construct: His
T2 sequence (P06213 28-1382): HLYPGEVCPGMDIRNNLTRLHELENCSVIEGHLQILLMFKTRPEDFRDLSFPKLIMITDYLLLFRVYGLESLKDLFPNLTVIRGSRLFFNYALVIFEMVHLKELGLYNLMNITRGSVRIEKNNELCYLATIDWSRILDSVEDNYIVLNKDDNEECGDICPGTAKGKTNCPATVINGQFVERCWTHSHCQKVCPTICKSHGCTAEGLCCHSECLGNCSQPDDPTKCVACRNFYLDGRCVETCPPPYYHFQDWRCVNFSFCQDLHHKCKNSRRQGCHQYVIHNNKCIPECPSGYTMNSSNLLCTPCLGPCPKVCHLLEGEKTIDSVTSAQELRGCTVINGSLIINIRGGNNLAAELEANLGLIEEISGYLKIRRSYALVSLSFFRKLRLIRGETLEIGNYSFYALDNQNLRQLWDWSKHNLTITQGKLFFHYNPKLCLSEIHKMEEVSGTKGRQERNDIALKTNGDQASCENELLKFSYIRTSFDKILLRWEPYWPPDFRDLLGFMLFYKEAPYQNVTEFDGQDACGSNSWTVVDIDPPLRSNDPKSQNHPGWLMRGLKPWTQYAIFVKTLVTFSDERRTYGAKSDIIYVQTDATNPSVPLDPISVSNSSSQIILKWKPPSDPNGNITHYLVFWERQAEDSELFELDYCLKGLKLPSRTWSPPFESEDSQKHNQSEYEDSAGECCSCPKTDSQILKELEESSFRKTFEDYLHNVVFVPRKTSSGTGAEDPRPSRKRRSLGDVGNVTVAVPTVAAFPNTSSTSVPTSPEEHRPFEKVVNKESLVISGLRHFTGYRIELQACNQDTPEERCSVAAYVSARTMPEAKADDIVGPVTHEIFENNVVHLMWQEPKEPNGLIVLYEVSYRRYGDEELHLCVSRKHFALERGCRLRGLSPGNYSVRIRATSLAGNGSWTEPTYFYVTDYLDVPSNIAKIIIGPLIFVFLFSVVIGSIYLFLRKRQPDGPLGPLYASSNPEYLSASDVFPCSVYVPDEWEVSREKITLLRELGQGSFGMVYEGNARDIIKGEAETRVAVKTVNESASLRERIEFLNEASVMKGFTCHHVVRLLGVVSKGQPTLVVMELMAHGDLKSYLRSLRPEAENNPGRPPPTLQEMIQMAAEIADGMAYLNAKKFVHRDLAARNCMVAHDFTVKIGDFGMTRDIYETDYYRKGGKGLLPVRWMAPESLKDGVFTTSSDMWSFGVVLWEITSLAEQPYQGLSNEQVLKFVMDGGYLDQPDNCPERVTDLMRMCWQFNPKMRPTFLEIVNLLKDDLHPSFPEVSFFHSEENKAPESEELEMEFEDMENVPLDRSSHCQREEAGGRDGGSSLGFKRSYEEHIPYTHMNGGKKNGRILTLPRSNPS
Protocol: as §1, §2
as §3, with “IR-HIS” for “BRSK2”, “EGTA,” for “EGTA, 0.1% b-mercaptoethanol,”, “36)” for “33)”, “7.5,” for “7.5, 0.05% b-mercaptoethanol,”, “0.02” for “0.05”

[1] = 10 micromolar compound, read-out: mean activity remaining (as a percentage of the original activity), CAMK 1
[2] = 10 micromolar compound, read-out: mean activity remaining (as a percentage of the original activity), BRSK 2

| Structure (SMILES) | remaining activity at 10 µM (CAMK1; CAMK1, 10 μM, read-out: Mean Remaining Enzyme Activity (%)) | remaining activity at 10 µM (BRSK2; BRSK2, 10 μM, read-out: Mean Remaining Enzyme Activity (%)) | Mean Remaining Enzyme Activity (%) (CK2; CK2, 10 μM) | remaining activity at 10 µM (CAMK1; [1]) | remaining activity at 10 µM (BRSK2; [2]) | mean activity remaining (as a percentage of the original activity), CK 2 (CK2) | remaining activity at 10 µM (IR-HIS) | mean activity remaining (as a percentage of the original activity), CAMK 1 (CAMK1; 10 micromolar compound) | mean activity remaining (as a percentage of the original activity), BRSK 2 (BRSK2; 10 micromolar compound) | mean activity remaining (as a percentage of the original activity), IR-HIS (IR-HIS) |
| --- | --- | --- | --- | --- | --- | --- | --- | --- | --- | --- |
| CC(C)c1cnn2c(NCc3ccccc3)cc(NCCCCCCCN)nc12 [BS-181] | 48% | 98% | 108% | – | – | – | – | – | – | – |
| C=C[C@H](CO)Nc1cc(NCc2ccccc2)n2ncc(C(C)C)c2n1 [ICEC0065] | – | – | – | 89% | 76% | 94% | 71% | – | – | – |
| CC[C@H](CO)Nc1cc(NCc2ccccc2)n2ncc(C(C)C)c2n1 [ICEC0067] | – | – | – | 84% | 76% | 87% | 78% | – | – | – |
| CC(C)c1cnn2c(NCc3ccccc3)cc(N[C@@H](CO)[C@H](O)CO)nc12 [ICEC0318, (3S)-3-(7-(Benzylamino)-3-isopropylpyrazolo[1,5-a]pyrimidin-5-ylamino)butane-1,2,4-triol] | – | – | – | 93% | 108% | 89% | 70% | – | – | – |
| CC(C)c1cnn2c(NCc3ccccc3F)cc(NCCCCCN)nc12 [ICEC-0232] | – | – | – | – | – | 92% | – | 29% | 81% | 58% |
